In US20240180886A1, “INHIBITORS OF PROTEIN TYROSINE PHOSPHATASE, COMPOSITIONS, AND METHODS OF USE” (BRISTOL-MYERS SQUIBB COMPANY, priority 2022, published 2024) one finds IC50 and EC50 data, which are given here for 18 molecules.

For assay [1], the target named is T1, PTPN2 (Homo sapiens (Human), UniProt P17706). The experiment in a line: PhosphoSens assay (PTPN2 BCHEM). Conditions: substrate AQT0264 20 μM, PTPN2 150 pM. It is filed as biochemical. As for the experimental part: A PhosphoSens® kinase assay was performed as described by the vendor (AssayQuant Technologies, Marlborough, MA). Briefly, 1000× solutions of compounds were prepared in DMSO via serial dilution of the 10 mM DMSO stocks using 3-fold intervals in a 384-well reagent plate. 50 nL of the compound dilution series was then added to the corresponding wells of a 384-well assay plate. […] Finally, […] of 5× PTPN2 enzyme stock was added to each well of the assay plate for a final enzyme concentration of 150 pM. Reaction progress curves were collected by sampling fluorescence intensity at the excitation wavelength 360 nm (λex360) and emission wavelength 480 nm (λem480) every 71 seconds for one hour using a Synergy H4 plate reader (BioTek Instruments/Agilent Technologies, Winooski, VT) at room temperature.
Target sequence in this assay (P17706 whole entry): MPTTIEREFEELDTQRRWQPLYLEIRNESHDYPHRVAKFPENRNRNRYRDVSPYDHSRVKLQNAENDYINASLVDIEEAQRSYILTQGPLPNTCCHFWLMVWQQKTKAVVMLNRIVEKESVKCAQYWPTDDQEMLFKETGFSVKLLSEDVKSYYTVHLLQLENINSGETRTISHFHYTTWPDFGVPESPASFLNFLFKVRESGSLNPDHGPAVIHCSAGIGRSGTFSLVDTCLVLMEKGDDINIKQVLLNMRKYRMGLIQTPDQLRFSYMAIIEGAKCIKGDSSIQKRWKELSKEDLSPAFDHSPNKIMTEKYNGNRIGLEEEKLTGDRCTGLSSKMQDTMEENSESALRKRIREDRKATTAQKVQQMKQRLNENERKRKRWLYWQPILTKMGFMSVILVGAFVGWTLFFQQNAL

The target of assay [2] is T1, PTPN2. The experiment in a line: Phosphatase activity assay using DiFMUP as substrate. Type of assay: biochemical. The note with it: PTPN2 0.15 nM, 10 mM DTT. As for the experimental part:
The PTPN2 biochemical assay was performed as follows, a 5× stock solution of human PTPN2 (SRP5075, MilliporeSigma, Burlington, MA) and a 1.25× stock solution of DiFMUP (D6567, ThermoFisher Scientific, Waltham, MA), were prepared in 1× reaction buffer consisting of 50 mM HEPES, pH 7.4, 1 mM EDTA, 150 mM NaCl, 0.2 mg/mL BSA, 100 U/mL catalase and 10 mM DTT. […] of the DiFMUP substrate solution, for a final concentration of […] DiFMUP substrate, was added to a Corning 3574 384-well, white, non-binding surface microtiter plate containing […] of serially diluted test compounds prepared in DMSO. The reactions were started with the addition of […] of the enzyme solution, for a final PTPN2 concentration of 0.15 nM, and monitored every 105 seconds for 60 minutes at λEX 360/λEM 460 in a BioTek Synergy HTX plate reader (Agilent Technologies, Santa Clara, CA) at room temperature. The initial linear portions of the progress curves were fit according to a linear equation to yield the slopes and converted to % inhibition based on a value of 100% activity for the no inhibitor treated control. IC50 values of each compound were obtained by fitting the % inhibition-compound concentration curves using Dotmatics software (Dotmatics, Bishops Stortford, Hertfordshire, England),
Target sequence in this assay (P17706 other isoform, or with tags, fused parts or gaps isoform P17706-2): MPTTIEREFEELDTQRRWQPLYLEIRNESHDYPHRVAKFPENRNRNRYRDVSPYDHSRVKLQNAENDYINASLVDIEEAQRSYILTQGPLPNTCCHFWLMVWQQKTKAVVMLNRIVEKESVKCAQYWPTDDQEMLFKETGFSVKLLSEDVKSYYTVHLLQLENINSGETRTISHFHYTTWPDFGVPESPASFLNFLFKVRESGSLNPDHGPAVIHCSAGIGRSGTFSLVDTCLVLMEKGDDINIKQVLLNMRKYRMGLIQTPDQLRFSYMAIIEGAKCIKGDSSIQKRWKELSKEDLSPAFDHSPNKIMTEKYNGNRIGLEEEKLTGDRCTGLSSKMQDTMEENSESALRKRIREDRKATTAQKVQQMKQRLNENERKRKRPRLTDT

The subject of assay [3] is phosphorylated STAT1 in B16-F10 cells. The assay can be described thus: Phospho-STAT1 (Tyr701) HTRF assay in B16-F10 cells with IFN-gamma. Type of assay: cell-based. The note with it: mouse IFN-gamma 100 ng/mL, 1 hour, read-out: pSTAT1 HTRF B16F10 EC50. As to the method:
B16-F10 cells (ATCC, Manassas, VA, #CRL-6475) were cultured in DMEM growth medium (ThermoFisher Scientific, Waltham, MA, #11995-040) supplemented with 10% heat-inactivated FBS (ThermoFisher Scientific, #16140-071) and 1% pen/strep (ThermoFisher Scientific, #15140-122). The cells were seeded into a white opaque 384-well tissue culture treated microplate (PerkinElmer, Waltham, MA, #6007688) at a density of 10,000 cells/well in 20 uL total volume and incubated overnight at 37 C and 5% CO2. 30 nL of compounds dissolved in DMSO were then transferred from a source plate into target wells with the Echo650 acoustic liquid handler (Beckman Coulter, Indianapolis, IN). Negative control wells received 30 nL of DMSO only (0.15% final concentration). Plates were returned to the incubator for 1 hour and then cells were treated with either 5 uL of growth medium or 5 uL of growth medium containing 500 ng/mL of recombinant mouse IFN-gamma protein (R&D Systems, Minneapolis, MN, #485-MI/CF, 100 ng/mL final concentration) using the Assist automated pipetting platform (INTEGRA Biosciences, Hudson, NH). Plates were incubated at 37 C for 1 hour and assayed for phosphorylated STAT1 protein levels with the phospho-STAT1 (Tyr701) HTRF kit (Cisbio, Bedford, MA, #63ADK026PEH) according to the manufacturer's instructions.
Background: In TR-FRET formats the signal depends on donor and acceptor labels being close together.

Another assay deals with B16-F10 cells. The experiment in a line: Cell proliferation assay (CellTiter-Glo) in B16-F10 cells with IFN-gamma. It is filed as cell-based. The note with it: 120 h, mouse IFN-gamma 10 ng/mL, read-out: PTPN2 Prolif 5d B16F10 EC50. Background: In ATP-based viability assays light output follows the ATP content of the culture.

The structures appear in SMILES notation.

One may read the IC50 as the concentration that inhibits the measured activity by half. In general, EC50 refers to the midpoint of the concentration-response curve. Take `COc1ccc(NCc2cc(O)c(N3CC(=O)NS3(=O)=O)c(F)c2)nc1` [EXAMPLE 38, 5-[2-fluoro-6-hydroxy-4-[[(5-methoxy-2-pyridyl)amino]methyl]phenyl]-1,1-dioxo-1,2,5-thiadiazolidin-3-one]: the IC50 at PTPN2 [1] came out at 10 nM; at PTPN2 [2] it was 60 nM. Also, the EC50 in assay [3] is 540 nM; in the assay with B16-F10 cells it was 850 nM.
On the same counts, the results for `Cc1cccnc1NCc1cc(O)c(N2CC(=O)NS2(=O)=O)c(F)c1` [EXAMPLE 15, 5-[2-fluoro-6-hydroxy-4-[[(3-methyl-2-pyridyl)amino]methyl]phenyl]-1,1-dioxo-1,2,5-thiadiazolidin-3-one] are 110 nM, 460 nM, 5020 nM and 6480 nM.
The corresponding values for `COc1cc(NCc2cc(O)c(N3CC(=O)NS3(=O)=O)c(F)c2)ncc1C` [EXAMPLE 9, 5-[2-fluoro-6-hydroxy-4-[[(4-methoxy-5-methyl-2-pyridyl)amino]methyl]phenyl]-1,1-dioxo-1,2,5-thiadiazolidin-3-one] are 4 nM, 4 nM, 70 nM and 120 nM.
`O=C1CN(c2c(O)cc(CNc3cc(C4CC4)ccn3)cc2F)S(=O)(=O)N1` [EXAMPLE 1, 5-[4-[[(4-cyclopropyl-2-pyridyl)amino]methyl]-2-fluoro-6-hydroxy-phenyl]-1,1-dioxo-1,2,5-thiadiazolidin-3-one]: the IC50 worked out at 6 nM at PTPN2 [1] and 1 nM on PTPN2 [2]. Besides, the EC50 in assay [3] was found to be 260 nM; in the assay on B16-F10 cells, 580 nM.
On to `COc1cc(NCc2cc(O)c(N3CC(=O)NS3(=O)=O)c(F)c2)nc(OC)c1` [EXAMPLE 18, 5-[4-[[(4,6-dimethoxy-2-pyridyl)amino]methyl]-2-fluoro-6-hydroxy-phenyl]-1,1-dioxo-1,2,5-thiadiazolidin-3-one], for which, on PTPN2 [2], the IC50 was 20 nM. The EC50 (in assay [3]; in the assay with B16-F10 cells) was 670 nM in each case.
Consider `Cc1cc(NCc2cc(O)c(N3CC(=O)NS3(=O)=O)c(F)c2)nc(N2CCOCC2)c1` [EXAMPLE 49, 5-(2-fluoro-6-hydroxy-4-(((4-methyl-6-morpholinopyridin-2-yl)amino)methyl)phenyl)-1,2,5-thiadiazolidin-3-one 1,1-dioxide], for which, on PTPN2 [2], the IC50 amounted to 20 nM. In addition, the figures for the EC50 (in assay [3]; in the assay on B16-F10 cells) were 4820 nM and 14700 nM, respectively.
The corresponding values for `CN(C)c1cccc(NCc2cc(O)c(N3CC(=O)NS3(=O)=O)c(F)c2)n1` [EXAMPLE 44, 5-(4-(((6-(dimethylamino)pyridin-2-yl)amino)methyl)-2-fluoro-6-hydroxyphenyl)-1,2,5-thiadiazolidin-3-one 1,1-dioxide] are 10 nM, 4850 nM and 5750 nM.
For the molecule `O=C1CN(c2c(O)cc(CNc3cccc(OC(F)F)n3)cc2F)S(=O)(=O)N1` [EXAMPLE 43, 5-[4-[[[6-(difluoromethoxy)-2-pyridyl]amino]methyl]-2-fluoro-6-hydroxy-phenyl]-1,1-dioxo-1,2,5-thiadiazolidin-3-one], on PTPN2 [2], the IC50 came to 110 nM. For the same molecule, the EC50 was greater than 15000 nM in assay [3] and 6570 nM in the assay on B16-F10 cells.
Regarding `COc1ccnc(NCc2cc(O)c(N3CC(=O)NS3(=O)=O)c(F)c2)c1OC` [EXAMPLE 27, 5-[4-[[(3,4-dimethoxy-2-pyridyl)amino]methyl]-2-fluoro-6-hydroxy-phenyl]-1,1-dioxo-1,2,5-thiadiazolidin-3-one], at PTPN2 [2], the IC50 is 810 nM. Also, the EC50 in assay [3] is greater than 15000 nM; in the assay on B16-F10 cells, 1710 nM.
On the same counts, the results for `O=C1CN(c2c(O)cc(CNc3cccc(=O)[nH]3)cc2F)S(=O)(=O)N1` [EXAMPLE 51, 5-(2-fluoro-6-hydroxy-4-(((6-oxo-1,6-dihydropyridin-2-yl)amino)methyl)phenyl)-1,2,5-thiadiazolidin-3-one 1,1-dioxide] are 0.2 nM, 200 nM and 600 nM.
For `Cc1cc(Br)nc(NCc2cc(O)c(N3CC(=O)NS3(=O)=O)c(F)c2)c1` [EXAMPLE 48, 5-(4-(((6-bromo-4-methylpyridin-2-yl)amino)methyl)-2-fluoro-6-hydroxyphenyl)-1,2,5-thiadiazolidin-3-one 1,1-dioxide], the IC50 on PTPN2 [2] turned out to be 40 nM. The EC50 in assay [3] is 3110 nM; in the assay with B16-F10 cells it was 4620 nM.
The corresponding values for `N#Cc1cccc(NCc2cc(O)c(N3CC(=O)NS3(=O)=O)c(F)c2)n1` [EXAMPLE 40, 6-[[3-fluoro-5-hydroxy-4-(1,1,4-trioxo-1,2,5-thiadiazolidin-2-yl)phenyl]methylamino]pyridine-2-carbonitrile] are 5 nM, 1750 nM and 2190 nM.
On to `COc1cc(C)nc(NCc2cc(O)c(N3CC(=O)NS3(=O)=O)c(F)c2)c1` [EXAMPLE 41, 5-[2-fluoro-6-hydroxy-4-[[(4-methoxy-6-methyl-2-pyridyl)amino]methyl]phenyl]-1,1-dioxo-1,2,5-thiadiazolidin-3-one], for which the IC50 at PTPN2 [2] was determined as 2 nM. Besides, the EC50 in assay [3] was found to be 59 nM; in the assay with B16-F10 cells it was 50 nM.
On the same counts, the results for `O=C1CN(c2c(O)cc(CNc3cccc(C(F)F)n3)cc2F)S(=O)(=O)N1` [EXAMPLE 42, 5-[4-[[[6-(difluoromethyl)-2-pyridyl]amino]methyl]-2-fluoro-6-hydroxy-phenyl]-1,1-dioxo-1,2,5-thiadiazolidin-3-one] are 40 nM, 4700 nM and 160 nM.
The corresponding values for `COc1ccc(OC)c(NCc2cc(O)c(N3CC(=O)NS3(=O)=O)c(F)c2)n1` [EXAMPLE 21, 5-[4-[[(3,6-dimethoxy-2-pyridyl)amino]methyl]-2-fluoro-6-hydroxy-phenyl]-1,1-dioxo-1,2,5-thiadiazolidin-3-one] are 20 nM, 9450 nM and 6700 nM.
Regarding `COc1ccc(C)c(NCc2cc(O)c(N3CC(=O)NS3(=O)=O)c(F)c2)n1` [EXAMPLE 29, 5-[2-fluoro-6-hydroxy-4-[[(6-methoxy-3-methyl-2-pyridyl)amino]methyl]phenyl]-1,1-dioxo-1,2,5-thiadiazolidin-3-one], the IC50 at PTPN2 [2] worked out at 5 nM. Also, the half-maximal effective concentration (EC50) in assay [3] is 7380 nM; with B16-F10 cells it was 9020 nM.
On the same counts, the results for `COc1cc(C)cc(NCc2cc(O)c(N3CC(=O)NS3(=O)=O)c(F)c2)n1` [EXAMPLE 39, 5-(2-fluoro-6-hydroxy-4-(((6-methoxy-4-methylpyridin-2-yl)amino)methyl)phenyl)-1,2,5-thiadiazolidin-3-one 1,1-dioxide] are 140 nM, 1940 nM and 4710 nM.
As for `Cc1cc(Oc2ccccc2)cc(NCc2cc(O)c(N3CC(=O)NS3(=O)=O)c(F)c2)n1` [EXAMPLE 52, 5-(2-fluoro-6-hydroxy-4-(((6-methyl-4-phenoxypyridin-2-yl)amino)methyl)phenyl)-1,2,5-thiadiazolidin-3-one 1,1-dioxide], the IC50 on PTPN2 [2] was 10 nM. Moreover, the EC50 in assay [3] came out at 6290 nM; with B16-F10 cells it was 3340 nM.
